Consider six compounds from US20260041680A1, “METHODS OF TREATING CANCER WITH LONG-ACTING TOPOISOMERASE I INHIBITOR” (priority 2022, published 2026).

Read-outs that look alike come from different tables or passages of the source.

Data set [1] deals with H460 human lung cancer xenograft.
For data set [2], the system named is H446 human small cell lung cancer xenograft.
Data set [3] has as its system Panc-1 human pancreatic cancer xenograft.
Data set [4] relates to HT-29 human colon cancer xenograft. Description: HT-29 human colon cancer xenograft, antitumor activity and tolerability. The format is in vivo, nude rat. In general terms: In xenograft studies the graft and the host belong to different species.
Data set [5] relates to MKN45 human gastric cancer xenograft.
Data set [6] has as its system HCT116 human colon cancer xenograft.
For data set [7] the following is noted: SN-38 formed from CPT-11; evident from high SN-38G/SN-38; cited from earlier work.
Data set [8] deals with NCI-N87 human gastric cancer xenograft.
For data set [9] the following is noted: in vivo, po.
The conditions of data set [10]: pegamotecan; cited from earlier work.
The mark [11] stands for this setting: cisplatin IP 5 mg/kg once a week for 2 weeks.
The mark [12] stands for this setting: PLX038 200 mg/kg, irinotecan 60 mg/kg, IV once a week for 2 weeks.
[13] abbreviates: irinotecan 60 mg/kg IV once a week for 2 weeks.
[14] abbreviates: PLX038 IV 200 mg/kg once a week for 2 weeks.
Where [15] appears, read: PLX038 200 mg/kg IV once a week for 2 weeks.

As to `N.N.[Cl][Pt][Cl]` [cisplatin], the TGI in data set [1] (setting [11]) was found to be 33%; in data set [2] (setting [11]), 36.1%.
The compound `Nc1ccn([C@@H]2O[C@H](CO)[C@@H](O)C2(F)F)c(=O)n1` [gemcitabine] had a TGI in [3] (gemcitabine IP 50 mg/kg once a week for 2 weeks) of 32.5%.
For the compound `CCc1c2c(nc3ccc(OC(=O)N4CCC(N5CCCCC5)CC4)cc13)-c1cc3c(c(=O)n1C2)COC(=O)[C@]3(O)CC` [irinotecan], the “tumor growth inhibition (TGI)” value in [4] (irinotecan 70/50 mg/kg IV once a week for 2 weeks) turned out to be 45%. Further, the “loss in body weight” value in data set [4] (irinotecan at 70 mg/kg IV (second dose lowered to 50 mg/kg)) is recorded as 16%. Further, the results for the tolerability result in data set [5] (setting [12]), in data set [6] (setting [12]) and in [8] (setting [12]) were “well-tolerated”, “well tolerated” and “well-tolerated”, respectively. For the same compound, the values for the TGI in data set [5] (setting [13]), in data set [6] (setting [13]) and in data set [8] (setting [13]) were 45.6%, 65.4% and 57.8%, respectively. Also, in data set [7], the “liver/GI exposure of SN-38” value is “high”.
Consider `CNCc1ccc(-c2[nH]c3cc(F)cc4c3c2CCNC4=O)cc1` [rucaparib], for which the “rucaparib pre-dose (trough) concentrations at steady state” value in data set [9] is on record as “reasonably consistent with prior data”.
Turning to “O-[7-(tetra-polyethylene glycol ether)-carboxamido-1-cyano-2-heptyl]-N-(10′-methoxy-7′-ethyl-camptothecin)-N-[4′-(diethylcarbamoyl)phenyl)] carbamate [PLX038]”, the TGI was determined as 73.1% in [3] (setting [14]); 30% in [1] (setting [14]); 59.0% in data set [5] (setting [15]); 46.6% in [6] (setting [15]); 41.0% in data set [2] (setting [14]); 34.4% in data set [8] (setting [15]). The “tumor growth inhibition (TGI)” value in data set [4] (PLX038 50 mg/kg IV once a week for 2 weeks) worked out at 13%; in [4] (PLX038 100 mg/kg IV once a week for 2 weeks), 35%; in data set [4] (setting [15]), 61%.
As for pegamotecan, the “maximum tolerated dose (MTD)” value in data set [10] is on record as 3.24 g/m^2.

For orientation: TGI means how far tumour growth fell short of that in controls. Read a low TGI as little slowing of growth.
